Laboratory results: patent US9079876B2, “Imidazole derivatives and preparation method and use thereof” (Beijing Orbiepharm Co., Ltd., priority 2010, dated 2015)

Legend:
[1] = target: T1, cyclooxygenase-1 (COX-1 enzyme) (Homo sapiens, UniProt P23219); test: Human whole blood in vitro activity assay, COX-1 (TXB2 by EIA); format: cell-based; settings: read-out: IC50 (μg/mL) COX-1 (converted)
T1 construct: from tissue; host or cells: human whole blood without heparin (platelets) from healthy volunteers
T1 sequence (P23219 24-599): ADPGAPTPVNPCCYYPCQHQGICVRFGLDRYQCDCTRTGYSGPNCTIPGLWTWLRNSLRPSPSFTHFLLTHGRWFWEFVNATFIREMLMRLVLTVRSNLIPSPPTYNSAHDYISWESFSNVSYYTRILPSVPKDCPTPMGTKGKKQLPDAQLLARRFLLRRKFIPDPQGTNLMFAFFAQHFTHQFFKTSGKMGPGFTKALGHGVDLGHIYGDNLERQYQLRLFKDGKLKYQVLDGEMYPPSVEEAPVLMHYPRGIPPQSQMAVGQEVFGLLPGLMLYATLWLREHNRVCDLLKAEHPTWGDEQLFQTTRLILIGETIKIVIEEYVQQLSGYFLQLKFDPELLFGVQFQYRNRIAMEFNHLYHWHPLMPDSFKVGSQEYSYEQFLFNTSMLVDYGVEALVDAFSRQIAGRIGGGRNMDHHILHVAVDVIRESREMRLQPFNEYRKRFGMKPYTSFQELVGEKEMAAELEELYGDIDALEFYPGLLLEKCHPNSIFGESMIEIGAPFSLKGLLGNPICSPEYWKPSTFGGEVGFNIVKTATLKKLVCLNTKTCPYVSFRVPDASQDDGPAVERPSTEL
Method: (§1) Human whole blood in vitro activity study: inhibition of activity of cyclooxygenase-1 (COX-1 enzyme) and cyclooxygenase-2 (COX-2 enzyme) in human blood. […] The blood samples were divided into two parts: one was used for detecting COX-1 enzyme activity, and the other was used for detecting COX-2 enzyme activity. The compounds were dissolved in DMSO, and were prepared in advance into 2 μL solutions in respective concentrations of 500, 50, 5, 0.5, 0.05, 0.005, 0.0005 μg/mL. 200 μL whole blood without heparin was added in the tubes containing the compounds, and then incubated at 37° C. for 1 hour. The activity of COX-1 enzyme was detected by determining the amount of thromboxane B2 (TXB2) synthesized by platelet using an EIA kit. Samples tested without the compounds were negative controls. For COX-2, 200 μL whole blood with heparin was added in the tubes containing the compounds and in the tubes containing 10 μg/mL LPS. LPS control and blank control with solvent only were used respectively for determining the maximum value and the background value of the PGE2 produced therefrom. The samples were incubated at 37° C. for 24 hours, and then centrifuged to collect serum/plasma, which was stored at −80° C. for detection by an EIA kit. The EIA kit of Cayman Company was used, the amounts of TXB2 and PGE2 were determined in accordance to the manufacturer's instructions, and the activities of COX-1 and COX-2 were tested respectively.

[2] = target: T2, cyclooxygenase-2 (COX-2 enzyme) (Homo sapiens, UniProt P35354); test: Human whole blood in vitro activity assay, COX-2 (LPS-induced PGE2 by EIA); format: cell-based; settings: for IC50: LPS, PGE2, read-out: IC50 (μg/mL) COX-2 (converted)
T2 construct: from tissue; host or cells: heparinised human whole blood from healthy volunteers, stimulated with LPS
T2 sequence (P35354 18-604): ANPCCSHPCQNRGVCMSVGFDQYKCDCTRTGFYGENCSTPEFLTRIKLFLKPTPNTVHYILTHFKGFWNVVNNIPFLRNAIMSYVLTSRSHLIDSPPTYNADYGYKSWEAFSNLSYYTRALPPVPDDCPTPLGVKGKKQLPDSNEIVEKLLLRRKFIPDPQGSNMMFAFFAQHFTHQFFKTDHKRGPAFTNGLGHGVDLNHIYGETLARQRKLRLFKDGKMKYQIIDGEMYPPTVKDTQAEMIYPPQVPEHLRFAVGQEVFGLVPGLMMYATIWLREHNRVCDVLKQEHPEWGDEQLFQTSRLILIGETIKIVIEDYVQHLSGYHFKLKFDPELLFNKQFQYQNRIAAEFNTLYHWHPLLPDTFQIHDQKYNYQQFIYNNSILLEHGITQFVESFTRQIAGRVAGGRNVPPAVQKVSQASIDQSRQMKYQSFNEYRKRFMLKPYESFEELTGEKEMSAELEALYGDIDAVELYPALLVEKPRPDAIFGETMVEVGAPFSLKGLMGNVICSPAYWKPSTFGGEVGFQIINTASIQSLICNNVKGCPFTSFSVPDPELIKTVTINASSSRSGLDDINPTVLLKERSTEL
Method: as §1

[3] = tested on: rat paw swelling induced by carrageenan; test: Rat paw swelling induced by carrageenan (inflammation model); format: in vivo, Wistar rats; settings: 14 mg/kg intragastric
Method: In vivo test: observation of the effect of compound 1 on rat paw swelling induced by carrageenan (inflammation model evaluation)
50 rats were randomized into 5 groups, with 10 animals in each group.
The total volume prepared for each dose group was determined based on the actual weight of the animals. A corresponding volume of purified water was taken, and was added with a sample of the test compounds or of the positive control, to allow homogenous dispersion. Sodium carboxymethyl cellulose was subsequently added, to make a homogenous suspension without obvious agglomerates.
Methods: 50 Wistar rats ([…], 167-199 g) were used in the study, with 25 males and 25 females. They were randomized into 5 groups, i.e. model group, positive control group, compound 1: low, middle and high dose groups. […] 1 hour after intragastric administration, 0.1 ml 1% carrageenan was intradermally injected in the right hind plantar paw to induce inflammation. After induction of inflammation, paw plantar volume and paw thickness were measured every another hour, consecutively for six times. Paw swelling rate (%) and inhibition rate (%) were calculated.
Assay methods: volume of the rat right paw was determined using UGO Basile plethysmograph, and the liquid level was kept constant for in the same animal in each measurement; thickness of the right hind paw were measured at the depiction line in the central paw with a digital vernier caliper.
The group mean and standard deviation of paw swelling rate in each group of animals were calculated, and then the following statistical analysis was performed. The test level was 0.05, and both statistical significance and biological significance were considered in the result analysis.
Levene's Test was used for homogeneity of variance test. Single-factor analysis of variance (ANOVA) was used for statistical analysis, if no statistical significance (P>0.05) was found. Dunnett's test (parametric method) analysis was used for multiple comparison analysis, if ANOVA found statistical significance (P≦0.05).
If there was heterogeneity of variance (P≦0.05), then the Kruskal-Wallis test was used. If the test result of Kruskal-Wallis test was statistically significant (P<0.05), then Dunnett's test (non-parametric method) was used for multiple comparison analysis.

[4] = tested on: mice forced swimming immobility time; test: Forced swimming test in mice (anti-depression model); format: in vivo, Male Kunming mice; settings: 20 mg/kg intragastric, in s (unit assumed)
Method: In Vivo Study: The Forced Swimming Test in Mice (Evaluation on Anti-Depression Model)
Male Kunming mice, approximately 20 g, were randomized into six groups, i.e. normal group, positive drug group (fluoxetine 20 mg/kg), group A (5 mg/kg Compound 1), group B (10 mg/kg Compound 1), group C (20 mg/kg Compound 1), and group D (40 mg/kg Compound 1).
Single Dose Test: Mice were normally fed for 1 day and allowed to adapt to the environment. Then the mice were fasted (except water) for 16 hours, and were intragastrically administrated with a single dose of the test drug, and the normal group was intragastrically administrated with an equivalent amount of distilled water. 40 min after administration, the mice were placed in forced swimming test device (swimming environment: pool diameter 12.5 cm cylinder, water temperature 25° C. and water depth 10 cm). Mice swam for six minutes, and the immobility time (i.e., the time during which the limbs were immobile, or only the feet were thrashing or paddling) was recorded with an animal behavioral record system, for the latter 4 min within the 6 min recording period, and was used for statistical analysis.
(§2) Study with Three-Day Consecutive Dosing: Mice were normally fed for 1 day and allowed to adapt to the environment. Then the mice were intragastrically administrated with the test drug consecutively for three days (once per day). The normal group was intragastrically administrated equivalent amount of distilled water. Mice were fasted (except water) for 16 hours before the last dosing. 40 min after the last dosing, the mice were placed in forced swimming test device (swimming environment: pool diameter 12.5 cm cylinder, water temperature 25° C. and water depth 10 cm). Mice swam for six minutes, and the immobility time (i.e., the time during which the limbs were immobile, or only the feet were thrashing or paddling) was recorded with an animal behavioral record system, for the latter 4 min within the 6 min recording period, and was used for statistical analysis.
as §2, with “Seven-Day” for “Three-Day”, “seven” for “three”

[5] = tested on: mice tail suspension immobility time; test: Tail suspension test in mice (anti-depression model); format: in vivo, Male Kunming mice; settings: 20 mg/kg intragastric, in s (unit assumed)
Method: In Vivo Test: Tail Suspension Test in Mice (Evaluation on an Anti-Depression Model)
Male Kunming mice, approximately 20 g, were randomized into six groups, i.e. normal group, positive drug group (fluoxetine 20 mg/kg), compound 1: group A 5 mg/kg, group B 10 mg/kg, group C 20 mg/kg, and group D 40 mg/kg.
Single Dose Test: Mice were normally fed for 1 day and allowed to adapt to the environment. Then the mice were fasted (except water) for 16 hours, and were intragastrically administrated with a single dose of the compound. The normal group was intragastrically administrated with an equivalent amount of distilled water. 40 min after the administration, the mice were inverted and fixed to a tail suspension device, and the distance between the head and the desktop was about 30 cm. Immobility time was recorded with an analysis record system, for the latter 4 min within the 6 min recording period, and was used for statistical analysis.
(§3) Study with Three-Day Consecutive Dosing: Mice were normally fed for 1 day and allowed to adapt to the environment. Then the mice were intragastrically administrated with the test drug for 3 consecutive days (once per day), and the normal group was intragastrically administrated with an equivalent amount of distilled water. The mice were fasted (except water) for 16 hours before the last dosing. 40 min after the last dosing, the mice were inverted and fixed to the tail suspension device, and the distance between the head and the desktop was about 30 cm. Immobility time was recorded with an analysis record system, for the latter 4 min within the 6 min recording period, and was used for statistical analysis.
as §3, with “with Seven-Day” for “with Three-Day”, “intragastrically dosed” for “intragastrically administrated with the test drug”, “for 7” for “for 3”, “days (once/day),” for “days (once per day),”, “last administration.” for “last dosing.”, “last administration,” for “last dosing,”

[6] = 3 days consecutive administration
[7] = 7 days consecutive administration
[8] = single dose, 40 min after administration

CS(=O)(=O)c1ccc(-n2cnc(Cl)c2-c2ccc(Cl)cc2Cl)nc1 [Compound 4, 2-(4-chloro-5-(2,4-dichlorophenyl)-1H-imidazol-1-yl)-5-(methylsulfonyl)pyridine]
IC50 [1]: 45.6 µM | IC50COX-1/IC50COX-2 [2]: 26.2 | IC50 [2]: 1.74 µM

Cc1ccc(-c2cc(C(F)(F)F)nn2-c2ccc(S(N)(=O)=O)cc2)cc1 [Celecoxib, reference compound]
inhibition rate of plantar paw thickness swelling ([3]; 1 h after inflammation): 30.02% | inhibition rate of plantar paw volume swelling ([3]; 1 h after inflammation): 0.26% | plantar paw thickness swelling rate ([3]; 1 h after inflammation): 7.69 ± 3.31% | plantar paw volume swelling rate ([3]; 1 h after inflammation): 10.87 ± 6.32% | inhibition rate of plantar paw thickness swelling ([3]; 2 h after inflammation): 60.28% | inhibition rate of plantar paw volume swelling ([3]; 2 h after inflammation): 38.81% | plantar paw thickness swelling rate ([3]; 2 h after inflammation): 6.30 ± 2.55 % | plantar paw volume swelling rate ([3]; 2 h after inflammation): 10.71 ± 6.01 % | inhibition rate of plantar paw thickness swelling ([3]; 3 h after inflammation): 73.09% | inhibition rate of plantar paw volume swelling ([3]; 3 h after inflammation): 66.24% | plantar paw thickness swelling rate ([3]; 3 h after inflammation): 4.64 ± 1.99 % | plantar paw volume swelling rate ([3]; 3 h after inflammation): 7.16 ± 5.15 % | inhibition rate of plantar paw thickness swelling ([3]; 4 h after inflammation): 80.52% | inhibition rate of plantar paw volume swelling ([3]; 4 h after inflammation): 64.29% | plantar paw thickness swelling rate ([3]; 4 h after inflammation): 3.71 ± 2.58 % | plantar paw volume swelling rate ([3]; 4 h after inflammation): 9.68 ± 6.13 % | inhibition rate of plantar paw thickness swelling ([3]; 5 h after inflammation): 82.31% | inhibition rate of plantar paw volume swelling ([3]; 5 h after inflammation): 56.44% | plantar paw thickness swelling rate ([3]; 5 h after inflammation): 3.34 ± 2.56 % | plantar paw volume swelling rate ([3]; 5 h after inflammation): 12.22 ± 6.90 % | inhibition rate of plantar paw thickness swelling ([3]; 6 h after inflammation): 82.40% | inhibition rate of plantar paw volume swelling ([3]; 6 h after inflammation): 57.00% | plantar paw thickness swelling rate ([3]; 6 h after inflammation): 2.72 ± 2.51 % | plantar paw volume swelling rate ([3]; 6 h after inflammation): 11.91 ± 5.41 %

COc1ccc(-c2c(Cl)ncn2-c2ccc(S(C)(=O)=O)nc2)cc1F [Compound 10, 5-(4-chloro-5-(3-fluoro-4-methoxyphenyl)-1H-imidazol-1-yl)-2-(methylsulfonyl)pyridine]
IC50 [1]: 185 µM | IC50COX-1/IC50COX-2 [2]: 58.8 | IC50 [2]: 3.14 µM

CS(=O)(=O)c1ccc(-n2cnc(Cl)c2-c2cccnc2)cn1 [Compound 11, 5-(4-chloro-5-(pyridin-3-yl)-1H-imidazol-1-yl)-2-(methylsulfonyl)pyridine]
IC50 [1]: > 1490 µM | IC50COX-1/IC50COX-2 [2]: >12.6 | IC50 [2]: 118 µM

CS(=O)(=O)c1ccc(-n2cnc(Cl)c2-c2cccnc2)nc1 [Compound 7, 2-(4-chloro-5-(pyridin-3-yl)-1H-imidazol-1-yl)-5-(methylsulfonyl)pyridine]
IC50 [1]: 54 µM | IC50COX-1/IC50COX-2 [2]: 19.0 | IC50 [2]: 2.84 µM

COc1ccc(-c2c(Cl)ncn2-c2ccc(S(C)(=O)=O)cn2)cc1F [Compound 6, 2-(4-chloro-5-(3-fluoro-4-methoxyphenyl)-1H-imidazol-1-yl)-5-(methylsulfonyl)pyridine]
IC50 [1]: 8.8 µM | IC50COX-1/IC50COX-2 [2]: 25.8 | IC50 [2]: 0.34 µM

CS(=O)(=O)c1ccc(-n2cnc(Cl)c2-c2ccccc2)cn1 [Compound 8, 5-(4-chloro-5-phenyl-1H-imidazol-1-yl)-2-(methylsulfonyl)pyridine]
IC50 [1]: > 1500 µM | IC50COX-1/IC50COX-2 [2]: >416 | IC50 [2]: 3.59 µM

CNCCC(Oc1ccc(C(F)(F)F)cc1)c1ccccc1 (stereo not drawn) [fluoxetine, reference compound]
forced swimming Immobility time [4, 6]: 82.42 ± 32.07 | forced swimming Immobility time [4, 7]: 90.94 ± 31.73 | forced swimming Immobility time [4, 8]: 105.04 ± 37.98 | tail suspension Immobility time [5, 6]: 33.95 ± 10.50 | tail suspension Immobility time [5, 7]: 33.76 ± 10.47 | tail suspension Immobility time [5, 8]: 43.52 ± 20.21
